Measured values from patent US8461338B2, “(1R, 1′R)-atracurium salts separation process” (Chemagis Ltd., priority 2007, dated 2013).

Columns and labels:
[1] = Stability of cisatracurium salt in different eluent mixtures (HPLC assay of isomer content over time); assay type: physicochemical; details: for % of the 1R-cis,1′R-cis isomer in the eluent composition: room temperature
Method: Table 6 illustrates how the amount of the 1R-cis,1′R-cis isomer changes at room temperature as a function of time in 3 different eluent mixtures. The (1R,1′R)-atracurium besylate isomer mixture was dissolved in the eluent and the resulting solutions were allowed to stand at room temperature for a period of 26 hours. After certain time intervals, as specified in Table 6, samples were withdrawn from each one of the 3 solutions and assayed by HPLC to determine the amount of the 1R-cis,1′R-cis isomer in the mixture.
The stability of the cisatracurium salt in the eluent mixture at 25° C. is presented in FIG. 1 whereby two plots are compared, that is, the plot describing the stability of the 1R-cis,1′R-cis isomer in the eluent mixture of 80:10:10 dichloromethane:DMSO:formic acid of the present invention (Column A in Table 6) vs. the plot of the dichloromethane:MeOH:benzenesulfonic acid eluent system, described in U.S. Pat. No. 5,556,978, example 2 (Column C in Table 6).

[2] = cited from earlier work

change of the content of the 1R-cis,1′R-cis isomer in the eluent mixture ([1]; dichloromethane:DMSO:formic acid eluent mixture, after 26 hours): remains unchanged
decrease of the content of the 1R-cis,1′R-cis isomer in the eluent mixture ([1]; dichloromethane:methanol:benzenesulfonic acid eluent (U.S. 5,556,978, example 2), after 26 hours at room temperature): more than 3%
% of the 1R-cis,1′R-cis isomer in the eluent composition ([1]; eluent A dichloromethane:DMSO:formic acid 80:10:10, 0 hours): 55.1%
% of the 1R-cis,1′R-cis isomer in the eluent composition ([1]; eluent A dichloromethane:DMSO:formic acid 80:10:10, 2 hours): 55.4%
% of the 1R-cis,1′R-cis isomer in the eluent composition ([1]; eluent A dichloromethane:DMSO:formic acid 80:10:10, 11 hours): 55.2%
% of the 1R-cis,1′R-cis isomer in the eluent composition ([1]; eluent A dichloromethane:DMSO:formic acid 80:10:10, 12 hours): 55.1%
% of the 1R-cis,1′R-cis isomer in the eluent composition ([1]; eluent A dichloromethane:DMSO:formic acid 80:10:10, 24 hours): 55.3%
% of the 1R-cis,1′R-cis isomer in the eluent composition ([1]; eluent A dichloromethane:DMSO:formic acid 80:10:10, 26 hours): 55.4%
% of the 1R-cis,1′R-cis isomer in the eluent composition ([1]; eluent B dichloromethane:DMSO:benzenesulfonic acid 90:10:0.006, 0 hours): 55.3%
% of the 1R-cis,1′R-cis isomer in the eluent composition ([1]; eluent B dichloromethane:DMSO:benzenesulfonic acid 90:10:0.006, 2 hours): 55.3%
% of the 1R-cis,1′R-cis isomer in the eluent composition ([1]; eluent B dichloromethane:DMSO:benzenesulfonic acid 90:10:0.006, 11 hours): 55.3%
% of the 1R-cis,1′R-cis isomer in the eluent composition ([1]; eluent B dichloromethane:DMSO:benzenesulfonic acid 90:10:0.006, 12 hours): 55.3%
% of the 1R-cis,1′R-cis isomer in the eluent composition ([1]; eluent B dichloromethane:DMSO:benzenesulfonic acid 90:10:0.006, 24 hours): 55.3%
% of the 1R-cis,1′R-cis isomer in the eluent composition ([1]; eluent B dichloromethane:DMSO:benzenesulfonic acid 90:10:0.006, 26 hours): 55.2%
% of the 1R-cis,1′R-cis isomer in the eluent composition ([1]; eluent C dichloromethane:methanol:benzenesulfonic acid 4000:500:0.5, 0 hours): 55.3%
% of the 1R-cis,1′R-cis isomer in the eluent composition ([1]; eluent C dichloromethane:methanol:benzenesulfonic acid 4000:500:0.5, 2 hours): 54.9%
% of the 1R-cis,1′R-cis isomer in the eluent composition ([1]; eluent C dichloromethane:methanol:benzenesulfonic acid 4000:500:0.5, 11 hours): 53.4%
% of the 1R-cis,1′R-cis isomer in the eluent composition ([1]; eluent C dichloromethane:methanol:benzenesulfonic acid 4000:500:0.5, 12 hours): 53.7%
% of the 1R-cis,1′R-cis isomer in the eluent composition ([1]; eluent C dichloromethane:methanol:benzenesulfonic acid 4000:500:0.5, 24 hours): 52.6%
% of the 1R-cis,1′R-cis isomer in the eluent composition ([1]; eluent C dichloromethane:methanol:benzenesulfonic acid 4000:500:0.5, 26 hours): 52.0%
Structure (SMILES): COc1ccc(C[C@@H]2c3cc(OC)c(OC)cc3CC[N@+]2(C)CCC(=O)OCCCCCOC(=O)CC[N@@+]2(C)CCc3cc(OC)c(OC)cc3[C@H]2Cc2ccc(OC)c(OC)c2)cc1OC [1R-cis,1′R-cis isomer, (1R,1′R,2R,2′R)-2,2′-[1,5-pentanediylbis[oxy(3-oxo-3,1-propanediyl)]]bis[1-[(3,4-dimethoxyphenyl)methyl]-1,2,3,4-tetrahydro-6,7-dimethoxy-2-methyl-isoquinolinium dibenzenesulfonate]
rate of loss in potency ([2]; at 25° C. (77° F.)): approximately 5 % per month
rate of loss of potency ([2]; under refrigeration (5° C.)): approximately 5 % per year
